#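 Where inhibition never reached the appropriate level, the endpoint shown equals the highest concentration tested. Otherwise, values were interpolated linearly from a five-concentration, 48-hour dose response in 96-well plates. At the GI50, growth is halved.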 Calls of active or inactive are those of the source. No stated cut-off is given here; in the data, active = GI50 up to about 1.1 µM and inactive = higher.
# Experiments:
# Test in all cases: DTP human tumour cell line panel, 48 h
# [1] = test system: A549
# [2] = test system: TK-10
# [3] = test system: Hs-578T
# [4] = test system: T47D
# [5] = test system: DU-145
# [6] = test system: ACHN
# [7] = test system: KM12
# [8] = test system: MOLT-4
# [9] = test system: EKVX
# [10] = test system: Malme-3M
# [11] = test system: K562
# [12] = test system: OVCAR-3
# [13] = test system: MCF7
# [14] = test system: IGROV-1
# [15] = test system: HT-29
# [16] = test system: 786-0
# [17] = test system: MDA-MB-435
# [18] = test system: SNB-75
# [19] = test system: HCT-116
# [20] = test system: RXF 393
# [21] = test system: MDA-N
# [22] = test system: NCI-H522
# [23] = test system: SR
# [24] = test system: NCI-H226
# [25] = test system: MDA-MB-231
# [26] = test system: SK-MEL-2
# [27] = test system: HCC 2998
# [28] = test system: SK-MEL-28
# [29] = test system: UACC-257
# [30] = test system: RPMI-8226
# [31] = test system: SF-268
# [32] = test system: NCI-H23
# [33] = test system: SW-620
# [34] = test system: NCI-H460
# [35] = test system: CAKI-1
# [36] = test system: SK-MEL-5
# [37] = test system: COLO 205
# [38] = test system: OVCAR-5
# [39] = test system: SK-OV-3
# [40] = test system: SNB-19
# [41] = test system: SF-295
# [42] = test system: NCI/ADR-RES
# [43] = test system: HCT-15
# [44] = test system: UACC-62
# [45] = test system: OVCAR-8
# [46] = test system: CCRF-CEM
# [47] = test system: LOX IMVI
# [48] = test system: OVCAR-4
# [49] = test system: BT-549
# [50] = test system: U-251
# [51] = test system: UO-31
# [52] = test system: M14
# [53] = test system: HOP-92
# [54] = test system: A498
# [55] = test system: SN12C
# [56] = test system: PC-3
# [57] = test system: HOP-62
# [58] = test system: HL-60
# [59] = test system: SF-539
compound,measurement,setting,value
O=C1Nc2ccccc2/C1=C1\C(=O)Nc2ccccc21 [ISOINDIGO],GI50,[1],27.4 µM (inactive)
same,GI50,[2],31.6 µM (inactive)
same,GI50,[3],49.2 µM (inactive)
same,GI50,[4],1.35 µM (inactive)
same,GI50,[5],12.9 µM (inactive)
same,GI50,[6],12.6 µM (inactive)
same,GI50,[7],21.6 µM (inactive)
same,GI50,[8],3.59 µM (inactive)
same,GI50,[9],20.7 µM (inactive)
same,GI50,[10],13.2 µM (inactive)
same,GI50,[11],7.48 µM (inactive)
same,GI50,[12],19.3 µM (inactive)
same,GI50,[13],4.52 µM (inactive)
same,GI50,[14],10.3 µM (inactive)
same,GI50,[15],4.98 µM (inactive)
same,GI50,[16],9.42 µM (inactive)
same,GI50,[17],11.9 µM (inactive)
same,GI50,[18],14.1 µM (inactive)
same,GI50,[19],17 µM (inactive)
same,GI50,[20],3.56 µM (inactive)
same,GI50,[21],24.5 µM (inactive)
same,GI50,[22],10.3 µM (inactive)
same,GI50,[23],2.82 µM (inactive)
same,GI50,[24],> 100 µM (inactive)
same,GI50,[25],27.8 µM (inactive)
same,GI50,[26],18.5 µM (inactive)
same,GI50,[27],23.2 µM (inactive)
same,GI50,[28],91.2 µM (inactive)
same,GI50,[29],31.1 µM (inactive)
same,GI50,[30],17.3 µM (inactive)
same,GI50,[31],31.2 µM (inactive)
same,GI50,[32],20.9 µM (inactive)
same,GI50,[33],4.57 µM (inactive)
same,GI50,[34],21.6 µM (inactive)
same,GI50,[35],19.7 µM (inactive)
same,GI50,[36],59.7 µM (inactive)
same,GI50,[37],21.9 µM (inactive)
same,GI50,[38],3.48 µM (inactive)
same,GI50,[39],59.7 µM (inactive)
same,GI50,[40],22.5 µM (inactive)
same,GI50,[41],60.3 µM (inactive)
same,GI50,[42],17.3 µM (inactive)
same,GI50,[43],3.84 µM
same,GI50,[44],17.3 µM (inactive)
same,GI50,[45],18.8 µM (inactive)
same,GI50,[46],2.9 µM (inactive)
same,GI50,[47],18.6 µM (inactive)
same,GI50,[48],10 µM (inactive)
same,GI50,[49],25.6 µM (inactive)
same,GI50,[50],11.4 µM (inactive)
same,GI50,[51],13.6 µM (inactive)
same,GI50,[52],32.1 µM (inactive)
same,GI50,[53],20.6 µM (inactive)
same,GI50,[54],20.9 µM (inactive)
same,GI50,[55],19 µM (inactive)
same,GI50,[56],9.75 µM (inactive)
same,GI50,[57],25 µM (inactive)
c1ccc(CN2CCCN3CCN(CCCN(Cc4ccccc4)CC3)CC2)cc1,GI50,[1],69.5 µM (inactive)
same,GI50,[2],55.6 µM (inactive)
same,GI50,[3],> 100 µM (inactive)
same,GI50,[4],35.7 µM (inactive)
same,GI50,[5],68.5 µM (inactive)
same,GI50,[6],> 100 µM (inactive)
same,GI50,[7],31.6 µM (inactive)
same,GI50,[8],81.3 µM (inactive)
same,GI50,[9],41.9 µM (inactive)
same,GI50,[10],0.227 µM (active)
same,GI50,[11],32 µM (inactive)
same,GI50,[12],27.2 µM (inactive)
same,GI50,[13],38.3 µM (inactive)
same,GI50,[14],60 µM (inactive)
same,GI50,[15],35.9 µM (inactive)
same,GI50,[58],24.7 µM (inactive)
same,GI50,[16],42.2 µM (inactive)
same,GI50,[17],32.7 µM (inactive)
same,GI50,[18],32 µM (inactive)
same,GI50,[19],35.2 µM (inactive)
same,GI50,[20],> 100 µM (inactive)
same,GI50,[21],30.5 µM (inactive)
same,GI50,[22],36.1 µM (inactive)
same,GI50,[23],43 µM (inactive)
same,GI50,[24],73.6 µM (inactive)
same,GI50,[25],38.2 µM (inactive)
same,GI50,[26],22.2 µM (inactive)
same,GI50,[59],87.7 µM (inactive)
same,GI50,[28],39.4 µM (inactive)
same,GI50,[29],22 µM (inactive)
same,GI50,[30],13 µM (inactive)
same,GI50,[31],78.7 µM (inactive)
same,GI50,[32],34.1 µM (inactive)
same,GI50,[33],> 100 µM (inactive)
same,GI50,[34],39.4 µM (inactive)
same,GI50,[35],> 100 µM (inactive)
same,GI50,[36],19.3 µM (inactive)
same,GI50,[37],25.3 µM (inactive)
same,GI50,[38],> 100 µM (inactive)
same,GI50,[39],> 100 µM (inactive)
same,GI50,[40],35.5 µM (inactive)
same,GI50,[41],87.7 µM (inactive)
same,GI50,[42],> 100 µM (inactive)
same,GI50,[43],> 100 µM
same,GI50,[44],35.1 µM (inactive)
same,GI50,[45],50.9 µM (inactive)
same,GI50,[46],46.9 µM (inactive)
same,GI50,[47],51.9 µM (inactive)
same,GI50,[48],35.6 µM (inactive)
same,GI50,[49],44.5 µM (inactive)
same,GI50,[50],36.4 µM (inactive)
same,GI50,[51],> 100 µM (inactive)
same,GI50,[52],38 µM (inactive)
same,GI50,[53],92 µM (inactive)
same,GI50,[54],58.5 µM (inactive)
same,GI50,[55],31.5 µM (inactive)
same,GI50,[56],30.5 µM (inactive)
same,GI50,[57],> 100 µM (inactive)
